#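 Step 1: Grow cells in 96-well plates. Step 2: Expose to compound for 48 hours at 5 concentrations. Step 3: Interpolate endpoints linearly; if unreached, use highest concentration. Here, GI50 denotes the concentration required for 50% inhibition of growth.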 Calls of active or inactive are those of the source. Cut-off read from the data, not from the text of the source: active = GI50 up to about 1.1 µM and inactive = higher.
# Columns and labels:
# Assay in all cases: inhibition of tumour cell growth, NCI panel, 48 h
# SK-OV-3 = system: SK-OV-3
# IGROV-1 = system: IGROV-1
# COLO 205 = system: COLO 205
# A498 = system: A498
# U-251 = system: U-251
# UO-31 = system: UO-31
# EKVX = system: EKVX
# OVCAR-8 = system: OVCAR-8
# NCI/ADR-RES = system: NCI/ADR-RES
# OVCAR-5 = system: OVCAR-5
# HCT-116 = system: HCT-116
# KM12 = system: KM12
# MDA-N = system: MDA-N
# SNB-19 = system: SNB-19
# HT-29 = system: HT-29
# HOP-62 = system: HOP-62
# SK-MEL-5 = system: SK-MEL-5
# OVCAR-4 = system: OVCAR-4
# M14 = system: M14
# A549 = system: A549
# OVCAR-3 = system: OVCAR-3
# SK-MEL-28 = system: SK-MEL-28
# SF-268 = system: SF-268
# BT-549 = system: BT-549
# LOX IMVI = system: LOX IMVI
# CAKI-1 = system: CAKI-1
# MDA-MB-435 = system: MDA-MB-435
# NCI-H226 = system: NCI-H226
# RXF 393 = system: RXF 393
# Hs-578T = system: Hs-578T
# HCT-15 = system: HCT-15
# MOLT-4 = system: MOLT-4
# SW-620 = system: SW-620
# NCI-H460 = system: NCI-H460
# SK-MEL-2 = system: SK-MEL-2
# CCRF-CEM = system: CCRF-CEM
# UACC-62 = system: UACC-62
# ACHN = system: ACHN
# RPMI-8226 = system: RPMI-8226
# T47D = system: T47D
# SF-295 = system: SF-295
# HOP-92 = system: HOP-92
# SNB-75 = system: SNB-75
# TK-10 = system: TK-10
# MCF7 = system: MCF7
# 786-0 = system: 786-0
# DU-145 = system: DU-145
# HCC 2998 = system: HCC 2998
# PC-3 = system: PC-3
# HL-60 = system: HL-60
# UACC-257 = system: UACC-257
# K562 = system: K562
# NCI-H23 = system: NCI-H23
# SR = system: SR
# SN12C = system: SN12C
compound,measurement,setting,value
CCN(CC)CCNc1n[n+]([O-])c2cc([N+](=O)[O-])ccc2[n+]1[O-],GI50,SK-OV-3,0.687 µM (active)
same,GI50,IGROV-1,0.116 µM (active)
same,GI50,COLO 205,0.326 µM (active)
same,GI50,A498,1.9 µM (inactive)
same,GI50,U-251,0.603 µM (active)
same,GI50,UO-31,1.84 µM (inactive)
same,GI50,EKVX,1.94 µM (inactive)
same,GI50,OVCAR-8,0.283 µM (active)
same,GI50,NCI/ADR-RES,0.979 µM (active)
same,GI50,OVCAR-5,2.04 µM (inactive)
same,GI50,HCT-116,0.3 µM (active)
same,GI50,KM12,0.504 µM (active)
same,GI50,MDA-N,0.452 µM (active)
same,GI50,SNB-19,1.19 µM (inactive)
same,GI50,HT-29,0.197 µM (active)
same,GI50,HOP-62,0.434 µM (active)
same,GI50,SK-MEL-5,0.429 µM (active)
same,GI50,OVCAR-4,1 µM (active)
same,GI50,M14,0.377 µM (active)
same,GI50,A549,0.454 µM (active)
same,GI50,OVCAR-3,0.865 µM (active)
same,GI50,SK-MEL-28,3.41 µM (inactive)
same,GI50,SF-268,0.568 µM (active)
same,GI50,BT-549,1.19 µM (inactive)
same,GI50,LOX IMVI,0.444 µM (active)
same,GI50,CAKI-1,0.205 µM (active)
same,GI50,MDA-MB-435,0.847 µM (active)
same,GI50,NCI-H226,1.83 µM (inactive)
same,GI50,RXF 393,0.809 µM (active)
same,GI50,Hs-578T,3.25 µM (inactive)
COC(=O)C1(C(=O)OC)N=C(C)OC1c1ccccc1O (stereo unspecified),GI50,HCT-15,> 100 µM
same,GI50,SK-OV-3,> 100 µM (inactive)
same,GI50,IGROV-1,> 100 µM (inactive)
same,GI50,COLO 205,> 100 µM (inactive)
same,GI50,A498,> 100 µM (inactive)
same,GI50,MOLT-4,> 100 µM (inactive)
same,GI50,SW-620,> 100 µM (inactive)
same,GI50,U-251,> 100 µM (inactive)
same,GI50,UO-31,> 100 µM (inactive)
same,GI50,NCI-H460,> 100 µM (inactive)
same,GI50,SK-MEL-2,> 100 µM (inactive)
same,GI50,CCRF-CEM,> 100 µM (inactive)
same,GI50,EKVX,> 100 µM (inactive)
same,GI50,UACC-62,> 100 µM (inactive)
same,GI50,OVCAR-8,> 100 µM (inactive)
same,GI50,NCI/ADR-RES,> 100 µM (inactive)
same,GI50,ACHN,> 100 µM (inactive)
same,GI50,OVCAR-5,> 100 µM (inactive)
same,GI50,HCT-116,> 100 µM (inactive)
same,GI50,KM12,> 100 µM (inactive)
same,GI50,RPMI-8226,> 100 µM (inactive)
same,GI50,T47D,> 100 µM (inactive)
same,GI50,SNB-19,> 100 µM (inactive)
same,GI50,SF-295,> 100 µM (inactive)
same,GI50,HOP-92,> 100 µM (inactive)
same,GI50,SNB-75,> 100 µM (inactive)
same,GI50,HOP-62,> 100 µM (inactive)
same,GI50,TK-10,> 100 µM (inactive)
same,GI50,SK-MEL-5,> 100 µM (inactive)
same,GI50,MCF7,> 100 µM (inactive)
same,GI50,OVCAR-4,> 100 µM (inactive)
same,GI50,786-0,> 100 µM (inactive)
same,GI50,DU-145,> 100 µM (inactive)
same,GI50,M14,> 100 µM (inactive)
same,GI50,A549,> 100 µM (inactive)
same,GI50,HCC 2998,> 100 µM (inactive)
same,GI50,PC-3,> 100 µM (inactive)
same,GI50,OVCAR-3,> 100 µM (inactive)
same,GI50,SK-MEL-28,> 100 µM (inactive)
same,GI50,HL-60,> 100 µM (inactive)
same,GI50,UACC-257,> 100 µM (inactive)
same,GI50,K562,> 100 µM (inactive)
same,GI50,BT-549,> 100 µM (inactive)
same,GI50,LOX IMVI,> 100 µM (inactive)
same,GI50,CAKI-1,> 100 µM (inactive)
same,GI50,MDA-MB-435,> 100 µM (inactive)
same,GI50,NCI-H23,> 100 µM (inactive)
same,GI50,SR,> 100 µM (inactive)
same,GI50,NCI-H226,> 100 µM (inactive)
same,GI50,RXF 393,> 100 µM (inactive)
same,GI50,SN12C,> 100 µM (inactive)

# From ChEMBL document CHEMBL1201862, “PubChem BioAssay data set” (2004)
